The results in this text go back to US20130102009A1, “SIRTUIN ACTIVATORS AND ACTIVATION ASSAYS” (priority 2010, published 2013).

Entries after “also recorded” stand apart in the source; their conditions may differ. Where a name gives a salt, the structure may show the parent alone. Some results are limits rather than exact numbers.

Test [1] addresses T1, SIRT1(183-664) (Homo sapiens, UniProt Q96EB6).
T1 construct: the truncated version used for biophysical studies SIRT1(183-664); made in house
T1 sequence (Q96EB6 183-664): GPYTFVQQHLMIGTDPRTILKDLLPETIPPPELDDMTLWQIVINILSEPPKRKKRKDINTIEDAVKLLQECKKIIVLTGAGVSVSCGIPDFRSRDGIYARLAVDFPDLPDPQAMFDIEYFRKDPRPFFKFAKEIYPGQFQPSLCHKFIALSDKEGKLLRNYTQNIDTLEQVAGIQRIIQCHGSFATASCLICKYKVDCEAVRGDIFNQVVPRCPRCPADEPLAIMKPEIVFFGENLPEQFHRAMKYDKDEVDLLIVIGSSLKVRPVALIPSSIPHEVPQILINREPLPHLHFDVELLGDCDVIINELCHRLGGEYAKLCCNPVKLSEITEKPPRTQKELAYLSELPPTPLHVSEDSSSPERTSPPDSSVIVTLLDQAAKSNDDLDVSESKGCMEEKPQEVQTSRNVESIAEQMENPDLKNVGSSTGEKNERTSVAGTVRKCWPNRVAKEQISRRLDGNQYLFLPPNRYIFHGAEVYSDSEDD
Kind of test: ITC binding of STACs to SIRT1(183-664). Particulars: dissociation constant of SRT:SIRT1 complex, read-out: Kx (μM), ITC. As for the experimental part: All peptides were prepared by BioPeptide (San Diego, Calif.) and shown to be at least 95% pure by analytical HPLC analysis. Bovine glutamate dehydrogenase (GDH), α-ketoglutarate, NADH and NAD^+ were from Sigma Chemical Company. Full-length, human SIRT1 and the truncated version used for biophysical studies SIRT1(183-664) were prepared as described previously, and shown to have equivalent kinetic properties (Milne et al. (2007) Nature 450, 712-716). The nicotinamidase PNC1 was prepared as described by Denu and colleagues (Smith et al. (2009) Anal Biochem 394, 101-109). ITC experiments were performed using either a VP-ITC system or iTC200 system (MicroCal) at 26° C. in a buffer composed of 137 mM NaCl, 2.7 mM KCl, 1 mM MgCl2, 2 mM TCEP, 5% (v/v) glycerol and 50 mM HEPES-NaOH, pH 7.3. SIRT1(183-664) was purified and dialyzed against the buffer, centrifuged, and degassed before the experiment. The peptide and compounds were dissolved in the final dialysis buffer and their pH values were adjusted to match that of the protein solution. […] To characterize this interaction using the iTC200 system, 1 mM TAMRA-peptide was injected in 20 aliquots of 2 μL, (except the first injection, which was 0.5 μL) into a 0.202 mL sample cell containing 100 μM STAC. For STACs with poor solubility, the concentrations were adjusted accordingly. […] To characterize the interaction of a STAC with SIRT1(183-664) on the VP-ITC system, 100 μM enzyme was injected in 35 aliquots of 8 μL, (except the first injection, which was 2 μL) into a 1.47 mL sample cell containing 10 μM STAC. […] In all cases, data was corrected for the heat of dilution and fitted using a nonlinear least-squares routine using a single-site binding model with Origin for ITC v7.0383 (Microcal) with the stoichiometry (n), the enthalpy of the reaction (ΔH) and the association constant (Ka) calculated.

In test [2] the target is TAMRA-peptide. Kind of test: ITC binding of STACs to TAMRA-peptide. Particulars: 26° C.; for Kd: pH 7.3, read-out: Kd for the binding of activator to TAMRA-peptide. As for the experimental part: ITC experiments were performed using either a VP-ITC system or iTC200 system (MicroCal) at 26° C. in a buffer composed of 137 mM NaCl, 2.7 mM KCl, 1 mM MgCl2, 2 mM TCEP, 5% (v/v) glycerol and 50 mM HEPES-NaOH, pH 7.3. SIRT1(183-664) was purified and dialyzed against the buffer, centrifuged, and degassed before the experiment. The peptide and compounds were dissolved in the final dialysis buffer and their pH values were adjusted to match that of the protein solution. […] To characterize this interaction using the iTC200 system, 1 mM TAMRA-peptide was injected in 20 aliquots of 2 μL, (except the first injection, which was 0.5 μL) into a 0.202 mL sample cell containing 100 μM STAC. For STACs with poor solubility, the concentrations were adjusted accordingly. […] In all cases, data was corrected for the heat of dilution and fitted using a nonlinear least-squares routine using a single-site binding model with Origin for ITC v7.0383 (Microcal) with the stoichiometry (n), the enthalpy of the reaction (ΔH) and the association constant (Ka) calculated.

As to `CN(C)Cc1cnc2sc(-c3ccccc3NC(=O)c3cnc4ccccc4n3)nc2c1` [Compound 2, N-(2-(6-((dimethylamino)methyl)thiazolo[5,4-b]pyridin-2-yl)phenyl)quinoxaline-2-carboxamide], in test [1], the Kd came to 0.32 µM. For the compound `CN(C)CCCNc1cc(-c2nc3c(NC(=O)c4ccc(CN5CCNCC5)cc4)cccc3[nH]2)ccn1` [Compound 14, N-(2-(2-(3-(dimethylamino)propylamino)pyridin-4-yl)-1H-benzo[d]imidazol-4-yl)-4-(piperazin-1-ylmethyl)benzamide trihydrochloride], in test [1], the Kd was 0.43 µM.

Turning to `CCCCc1nc(NC2CCNCC2)cc(C(=O)Nc2ccccc2-c2nc3cc(COC4CCNCC4)cnc3s2)n1` [Compound 10, 2-butyl-6-(piperidin-4-ylamino)-N-(2-(6-((piperidin-4-yloxy)methyl)thiazolo[5,4-b]pyridin-2-yl)phenyl)pyrimidine-4-carboxamide], in test [2], the Kd was 2500 nM.

On to `Cc1nc(-c2cccnc2)sc1C(=O)Nc1ccccc1-c1cn2c(CN3CC4CC3CN4)csc2n1` (stereo not shown) [Compound 4, N-(2-(3-(2,5-diazabicyclo[2.2.1]heptan-2-ylmethyl)imidazo[2,1-b]thiazol-6-yl)phenyl)-4-methyl-2-(pyridin-3-yl)thiazole-5-carboxamide], for which the “Kd for the binding of activator to TAMRA-peptide” value in test [2] (pH 7.3) is recorded as “no detectable binding; also recorded: lack of binding”. In addition, the Kd in test [2] is greater than 100000 nM; in test [1], 3 µM. `COc1cc(C(=O)Nc2ccccc2-c2cn3c(CN4CCNCC4)csc3n2)cc(OC)c1OC` [SRT1460]: the Kd in test [2] amounted to 140000 nM.
